{"source": "patent US20160296644A1", "about": "“ANTICANCER DRUG, COMPRISING A COPPER RADIOISOTOPE” (priority 2013, published 2016)", "key": {"[1]": {"tested_on": "DNA of the cancer cell", "assay": "Laboratory experimental tests of Auger radioactive effect on cancer cells", "settings": "dosage 1.5 Bq for each cell", "procedure": "Said dosage is equal to a 1.5 Bq (Becquerel) for each cell, a quantity such that the therapeutic effectiveness of the drug is carried out through the expression of the toxicity thereof only inside the nucleus, achieving a true target therapy."}, "[2]": {"tested_on": "amyloid plaques", "assay": "Use against Alzheimer's disease (radiotracer / therapeutic agent)", "from_the_text": "In fact, it is capable of binding to the amyloid plaques, the accumulation whereof within the nerve cells characterises the presence of the pathology, and catalyses its formation process. By crossing the blood-brain barrier, the deposit of the subject drug is suitably identified inside said amyloid plaques, providing a diagnostic feedback beyond all doubts.\nIn fact, the drug, by binding to said amyloid plaques, initially stabilises the growth thereof, to then slower it by braking such “drug-plaque” bonds."}, "[3]": {"tested_on": "solid tumours, neuroendocrine tumours, melanomas, leukaemias and lymphomas", "assay": "Therapeutic effectiveness in cancer pathologies", "settings": "solid tumours (pancreas, prostate, brain, breast, ovary, head-neck, oesophagus, stomach, intestines, colon, liver, lung)"}}, "data": [{"smiles": "[64Cu+2].[Cl-].[Cl-]", "note": "[64CuCl2, copper-64 chloride]", "values": [{"measurement": "Auger radioactive effect on DNA of the cancer cell", "setting": "[1]", "result": "capable of destroying the DNA of the cancer cell"}, {"measurement": "volume of the tumoural lesions in solid tumours", "setting": "[1]", "result": "reducing the volume of the tumoural lesions in solid tumours"}, {"measurement": "therapeutic agent against neuronal cells affected by the Alzheimer's disease", "setting": "[2]; average dose 3,700 MBq", "result": "carries out the function of therapeutic agent"}, {"measurement": "radiotracer for the diagnosis of the Alzheimer's disease", "setting": "[2]; average dose of 370 MBq", "result": "capable of acting as a radiotracer"}, {"measurement": "effectiveness as a therapeutic agent for cancer pathologies", "setting": "[3]", "result": "effective"}]}]}
